In the supplement of paper PMC10307832 one finds relative viability data, which are given here for one cell line.

Holding throughout (assay): relative viability (nuclei count vs DMSO), 5 days (fraction); higher = more cells survive
Compound in the test “Kobe2602 + Crizotinib”: C1=CC(=CC=C1NC(=S)NNC2=C(C=C(C=C2[N+](=O)[O-])C(F)(F)F)[N+](=O)[O-])F [Kobe2602] + C[C@@H](Oc1cc(-c2cnn(C3CCNCC3)c2)cnc1N)c1c(Cl)ccc(F)c1Cl [Crizotinib] (partner 1 µM)
The procedure, abridged:
(§1)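 After 5 days of treatment, lung cancer cells in 1536-well plates were fixed and stained in a single step (final 0.05% Triton X-100, 1% formaldehyde, 1 ug/ml Hoechst) and their nuclei counted on 4× images. Treatment had been applied by pin tool the day after seeding as one drug alone or as a fixed anchor-drug dose with five library-drug doses (not always all listed) in √10 steps. Relative viability is the nuclei count of treated wells divided by that of vehicle wells, and values are medians of duplicate plates.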

Compound in the test “Kobe2602 + Olaparib”: C1=CC(=CC=C1NC(=S)NNC2=C(C=C(C=C2[N+](=O)[O-])C(F)(F)F)[N+](=O)[O-])F [Kobe2602] + O=C(c1cc(Cc2n[nH]c(=O)c3ccccc23)ccc1F)N1CCN(C(=O)C2CC2)CC1 [Olaparib] (partner 8 µM)
Put shortly: as §1

Compound in the test “Kobe2602 + Palbociclib”: C1=CC(=CC=C1NC(=S)NNC2=C(C=C(C=C2[N+](=O)[O-])C(F)(F)F)[N+](=O)[O-])F [Kobe2602] + CC(=O)c1c(C)c2cnc(Nc3ccc(N4CCNCC4)cn3)nc2n(C2CCCC2)c1=O [Palbociclib] (partner 0.5 µM)
The procedure, abridged:
as §1

Compound in the test “Cabozantinib + OSI-027”: COc1cc2nccc(Oc3ccc(NC(=O)C4(C(=O)Nc5ccc(F)cc5)CC4)cc3)c2cc1OC [Cabozantinib] + COc1cccc2cc(-c3nc([C@H]4CC[C@H](C(=O)O)CC4)n4ncnc(N)c34)[nH]c12 [OSI-027] (partner 0.5 µM)
Put shortly:
as §1

For UMC-11, the relative viability with Kobe2602 + Crizotinib (first compound 0.2 µM) was 0.578; with Kobe2602 + Crizotinib (first compound 0.6325 µM), 0.545; in the test with Kobe2602 + Crizotinib (first compound 2 µM), 0.672; with Kobe2602 + Crizotinib (first compound 6.325 µM), 0.619; in the test with Kobe2602 + Crizotinib (first compound 20 µM), 0.639; in the test with Kobe2602 + Olaparib (first compound 0.2 µM), 0.404. Besides, the relative viability with Kobe2602 + Olaparib (first compound 0.6325 µM) came to 1.07; with Kobe2602 + Olaparib (first compound 2 µM), 0.384; in the test with Kobe2602 + Olaparib (first compound 6.325 µM) it was 0.366; with Kobe2602 + Olaparib (first compound 20 µM) it was 1.02; with Kobe2602 + Palbociclib (first compound 0.2 µM) it was 0.356; with Kobe2602 + Palbociclib (first compound 0.6325 µM), 0.331. Further, the relative viability with Kobe2602 + Palbociclib (first compound 2 µM) is 0.347; with Kobe2602 + Palbociclib (first compound 6.325 µM), 0.343; with Kobe2602 + Palbociclib (first compound 20 µM) it was 0.345; with Cabozantinib + OSI-027 (first compound 0.02 µM), 0.45; with Cabozantinib + OSI-027 (first compound 0.06325 µM) it was 0.49; with Cabozantinib + OSI-027 (first compound 0.2 µM), 0.518. In addition, the relative viability with Cabozantinib + OSI-027 (first compound 0.6325 µM) came out at 0.547; in the test with Cabozantinib + OSI-027 (first compound 2 µM), 0.432.
